The subject of one series is Epithelial cells. Nature of the series: Cellular viability with CA and CA-R mixes. The class given is cell-based. As to conditions: after 5 days, pH 6; CA 20 mM alone or CA 20 mM plus the named CA-R (CAC2NH2 30 mM, CAC6NH2 12 mM). The source says: Magnification of 10×, scale bar=100 μm, dapi in blue and factin in red.
Cellular viability. To be applicable in biological context, the toxicity of the CA and the combined CA-R mixes were verified. Epithelial cells were cultivated in media supplemented with various CA-R mixes and acidified at pH 6. Both the cellular viability and morphology was studied over a 5 day period.

Series [1] is classed as in vitro ADME, bovine. The conditions noted are these: pH 6. As for the experimental part:
(§1) The sample then was stored at −20° C.
(§2) Results. The PAGE analyses were performed for both CA concentrations, and imaged side-by-side (FIG. 2). The strongest resulting band intensities were normalised to the t=0 data-point, plotted as a function of time (See Supplemental), and then fitted to the first-order kinetics equations (Equations 1, 2, and FIG. 3). The rate constants were calculated from these graphs (using Equation 4), and tabulated according to strand and CA concentration (Table 2).
(§3) Equation 4. The Equation 2, written as relationship between the band intensities (I at some t, and at t=0), and the rate constant, k.

A short description of series [2]: Serum stability assay in L15 media with FBS, denaturing PAGE band intensity. The class given is in vitro ADME, bovine. As to conditions: pH 6. As for the experimental part: as §1, §2
Equation 1. First-order rate law for the variation of the concentration of a substance (in this case, nucleic acid, “NA”) with time, where [NA]t is the concentration of NA at a given time t, and [NA]0 is the initial concentration.
as §3

A short description of series [3]: Rheological measurements of dA/CA hydrogels. It is filed as physicochemical. The conditions noted are these: for storage modulus (G′): same wt % (dA15 1400 μM, dA30 700 μM, dA50 420 μM), Mag buffer, 25° C.; for G′ window: dA50 420 μM, dA30C8 2 mM, CA 60 mM, CAC2NH2 90 mM. The procedure: Hydrogel Assembly and Rheology: Unless otherwise stated, the preparation of gels follows this procedure. The appropriate amounts of strands are evaporated from their stocks on a speedvaccuum in a 300 μL Eppendorf. For the dA30-dsDNAn hydrogels, the concentration is half strand1 and half strand2. Once dry, 50 μL or 100 μL of a buffer containing the desired concentration of CA and/or CAC2NH2 is added to the Eppendorf. […] Both buffers give similar gels rheologically (FIG. 40). For concentrations of CA exceeding 20 mM or CAC2NH2 30 mM, the excess CA-R is dried with the strands from a water/CA 20 mM solution adjusted to pH 6. The dried DNA is mixed and sonicated to help it dissolve, forming instantly a cloudy filamentous gel. To homogenize the gels, the Eppendorf is heated to 85° C. for 5 minutes a Bio-Rad T100TM thermocycler, then cooled down to 20° C. and kept at that temperature overnight, unless otherwise noted. They are measured the next day. It is important to properly homogenize the gels, mixing them at high temp if needed, and to quickly cool them, or they may form more localized aggregates with varying rheology. Due to the high melting temperature of dA30C8 2 mM, CA 60 mM, CAC2NH2 90 mM, the gel was prepared by heating at 100° C. for 20 min (sealed to prevent water escaping), before being brought to 20° C. Clear monophasic gels are formed from this process.
Rheological measurements: Rheological properties were measured using stress-controlled rheometer (MCR 302, Anton Paar) using a 15 mm diameter cone plate at 0.2 mm (50 μL gels) or 0.5 mm (100 μL gels) gap distance. Samples were taken directly from the Eppendorf in which they were formed by prying it open with a razor blade and placed under the cone plate. The temperature was maintained at 25° C. for all measurements using a Peltier temperature control unit unless otherwise noted. Due to the small thickness of the samples, no temperature gradients are expected. To avoid drying, a solvent trap was used in all the measurements. Amplitude sweeps were first conducted to assess the linear viscoelastic range of the samples by slowly increasing the strain from 0.01% to 100%. […] Oscillatory frequency sweep tests were measured between 0.1 Hz and 100 Hz at 0.1% strain. Strain-cycle experiment was done by cycling the gel between 0.1% and 100% strains at 1 Hz. To understand the shear-thinning behavior of the samples, the viscosity was measured at increasing strain rate ranging from (0.1-100 Hz).
• A) Strand complement. Two 50 μL dA30C4 700 μM hydrogel in Mag buffer with CA 20 mM samples were prepared, as well as a 10 μL sample of dG4T30 3 mM (1.5 eq.) in the same buffer and CA concentration. A sample of dA30C4 hydrogel was measured independently. The dG4T30 sample was added to the second dA30C4 sample and vortexed in its Eppendorf for 2 minutes before being measured. • B) Melamine. A 50 μL hydrogel composed of dA30-dsDNA13 700 μM and CA 20 mM in Mag buffer was measured in the rheometer. The plate of the rheometer was lifted and 50 μL of solution of 20 mM melamine in Mag buffer at pH6 was added to it. Instant white precipitate formed and was encouraged by gently mixing with a spatula for 30s before the resulting liquid with solid precipitate was measured rheologically. • C) pH. A volume of 180 μL of dA30C4v2 700 μM CA 20 mM hydrogel in Mag buffer was prepared. The initial pH was measured at 5.71 with a surface pH meter (Mettler Toledo). An approximate volume of 50 μL was separated and measured rheologically. To the remaining 130 μL, 2.70 μL of NaOH 5.04M was added and stirred through vortexing. The resulting pH of the liquid was measured at 7.91. 50 μL of it were measured rheologically. To the remaining 80 μL, 1.5 μL of HCl 5.04M was added by aliquot and mixed through vortexing, forming a gel with a pH of 5.66 after 2 minutes. To note that in general, it is important to mix vigorously with the addition of the acid, or localized gels will form rather than a homogeneous one. […]

Read-outs that look alike come from different tables or passages of the source.

Data on 13 molecules can be found in patent US20260224732A1, “BIOPOLYMER PROTECTED OLIGONUCLEOTIDES FOR DRUG DELIVERY” (THE ROYAL INSTITUTION FOR THE ADVANCEMENT OF LEARNING / …, priority 2023, published 2026).

Consider `NCCn1c(=O)[nH]c(=O)[nH]c1=O` [CAC2NH2], for which the viability (as a rule, the share of living cells, or the viability signal relative to a control) in the series with Epithelial cells came to 82±5%.

Regarding `NCCCCCCn1c(=O)[nH]c(=O)[nH]c1=O` [CAC6NH2], the viability with Epithelial cells is given as 43±2%.

“Control random: DNA GATGAGGTACCCAGAAGCCGAACTGGGCCAGACAACCCGGCGCTAAC, SEQ ID NO 11, no polyA (DNA, backbone not given here) [reference compound]”: in series [1], the “k 0 mM [CA]” value is “(3.86 ± 0.2) × 10^−2 h^−1” and the “k 20 mM [CA]” value is “(3.48 ± 0.8) × 10^−2 h^−1”.

With “R7rA15: RNA strand AAAAAAAAAAAAAAAGTCATCG, SEQ ID NO 3 in Table 1; Table 5 swaps the name with rA15R7 (AAAAAAAAAAAAAAAGUCAUCG; chemistry not fully specified) [Strand R7rA15]”, in series [2], the “k 0 mM [CA]” value was “(3.73) × 10^−2 h^−1” and the “k 20 mM [CA]” value is “(2.59) × 10^−3 h^−1”. In series [1], the “k 0 mM [CA]” value is “(2.80 ± 0.7) × 10^−2 h^−1” and the “k 20 mM [CA]” value is “(7.47 ± 0.4) × 10^−3 h^−1”.

With “dA15: DNA strand of 15 adenines, SEQ ID NO 5 (DNA AAAAAAAAAAAAAAA; DNA, backbone not given here)”, the “storage modulus (G′)” value in series [3] (1 Hz, CA 20 mM) is 1.3±0.8×10^1 Pa. The storage modulus in series [3] (pure dA15 hydrogel with CA) was ~10^1 Pa; in series [3] (pure dA15 hydrogel with CAC2NH2 instead of CA, 0.7 wt % (including CAC2NH2)), ~10^3 Pa.

Turning to “dA30C4-v2′: DNA strand, 30 adenines then CCCCGTCGCTCTCTCAAGTAGAAT, SEQ ID NO 10 (DNA AAAAAAAAAAAAAAAAAAAAAAAAAAAAAACCCCGTCGCTCTCTCAAGTAGAAT; DNA, backbone not given here)”, in series [1], the “k 0 mM [CA]” value is “(1.33 ± 0.1) × 10^−2 h^−1” and the “k 20 mM [CA]” value is “(3.46 ± 0.5) × 10^−3 h^−1”.

“dA30C4: DNA strand, 30 adenines then CCCC, SEQ ID NO 9 (DNA AAAAAAAAAAAAAAAAAAAAAAAAAAAAAACCCC; DNA, backbone not given here)”: in series [2], the “k 0 mM [CA]” value is “(5.83) × 10^−3 h^−1” and the “k 20 mM [CA]” value is listed as “(−2.08) × 10^−3 * h^−1”. The “G′ and G″ after addition of the complementary strand dG4T30” value in series [3] (dA30C4 700 μM, CA 20 mM, dG4T30 1.5 eq.) was “large loss of G′ and G″”.

Turning to “dA30C8: DNA strand, 30 adenines then CCCCCCCC, SEQ ID NO 8 (DNA AAAAAAAAAAAAAAAAAAAAAAAAAAAAAACCCCCCCC; DNA, backbone not given here)”, the “moduli at 37° C.” value in series [3] (1.7 wt % gel, room temperature to 37° C.) is on record as “virtually unchanged”. Besides, the “G′” value is ~10^4 Pa in series [3] (1.7 wt %, mixture of CA and CAC2NH2); 8±1×10^4 Pa in series [3] (4.7 wt % (CA-R included), 1 Hz); 1±0.1×10^5 Pa in series [3] (4.7 wt % (CA-R included), 10 Hz). For the same molecule, the “storage modulus at 85° C.” value in series [3] (4.7 wt % gel, 85° C.) is listed as “above 10^4 Pa”. The “G′ window” value in series [3] (CA 20 mM) is on record as ~10^5 Pa. In series [3] (qualitatively observed), the “gel state at 100° C.” value was “staying a gel”. Also, the “k 0 mM [CA]” value in series [1] is given as “(2.29 ± 0.5) × 10^−2 h^−1”. The “k 20 mM [CA]” value in series [1] is “(4.87 ± 0.7) × 10^−3 h^−1”.

On to “dA50: DNA strand of 50 adenines, SEQ ID NO 28 (DNA AAAAAAAAAAAAAAAAAAAAAAAAAAAAAAAAAAAAAAAAAAAAAAAAAA; DNA, backbone not given here)”, for which the “storage modulus (G′)” value in series [3] (1 Hz, CA 20 mM) was 4±2×10^1 Pa. The “G′ window” value in series [3] (CA 20 mM) is ~10^1 Pa.

For the molecule “rA15: RNA strand AAAAAAAAAAAAAAA, SEQ ID NO 1 (RNA, backbone not given here)”, in series [2], the “k 0 mM [CA]” value is reported as “(6.70) × 10^−2 h^−1” and the “k 20 mM [CA]” value is “(1.07) × 10^−2 h^−1”. Also, in series [1], the “k 0 mM [CA]” value was “(2.43 ± 0.3) × 10^−2 h^−1” and the “k 20 mM [CA]” value is recorded as “(2.42 ± 0.2) × 10^−3 h^−1”.

For the molecule “rA15R7: RNA strand GCTACTGAAAAAAAAAAAAAAA, SEQ ID NO 2 in Table 1; Table 5 swaps the name with R7rA15 (GCUACUGAAAAAAAAAAAAAAA; chemistry not fully specified)”, the “k 0 mM [CA]” value is given as “(4.67) × 10^−2 h^−1” in series [2] and “(1.25 ± 0.2) × 10^−1 h^−1” in series [1]. The figures for the “k 20 mM [CA]” value in series [2] and in series [1] were “(4.16) × 10^−3 h^−1” and “(2.25 ± 0.2) × 10^−3 h^−1”, respectively.

B1: dA30C4v2: hydrogel strands: 30 adenine followed by 20 complementary base pairs as overhang; strand1 and strand2, SEQ ID NO 33, 34 (nucleic acid)
chain 1: AAAAAAAAAAAAAAAAAAAAAAAAAAAAAACCCCATTCTACTTGAGAGAGCGAC
chain 2: AAAAAAAAAAAAAAAAAAAAAAAAAAAAAACCCCGTCGCTCTCTCAAGTAGAAT
modifications: DNA, backbone not given here; hydrogel-forming strands with complementary overhangs
Regarding B1, the “storage modulus G′ (1 Hz)” value in series [3] (700 μM strands (1.4 wt % for dA30C4v2), CA 20 mM) is on record as 4±0.8×10^3 Pa. For the same molecule, the “G′” value in series [3] (4 wt % (CA included)) was 3×10^4 Pa.

B2: dA30-dsDNA13: half strand1 and half strand2, SEQ ID NO 31 and 32, double-stranded DNA crosslink (nucleic acid)
chain 1: AAAAAAAAAAAAAAAAAAAAAAAAAAAAAACTAGAAGTGTCCAGTTA
chain 2: AAAAAAAAAAAAAAAAAAAAAAAAAAAAAATTACTAACTGGACACTT
modifications: DNA, backbone not given here; crosslinked double-stranded DNA
B2: in series [3] (700 μM), the “yield point of the gel (G″ overtakes G′)” value is reported as “Around 1 % shear strain”. Also, the “G′ and G″ after adding stoichiometric amount of melamine” value in series [3] (700 μM, CA 20 mM, melamine 20 mM) is “greatly decreases G′ and G″”. Besides, the “self-healing, return to initial modulus” value in series [3] (cycling low shear (0.1%) and high shear (100%)) was “under 1 min”.
